The source of these data is article PMC11396318, “Lupeol-3-carbamate Derivatives: Synthesis and Biological Evaluation as Potential Antitumor Agents” (Molecules, 2024).

Experiment [1] deals with human breast cancer cell line MCF-7. Description: MTT anti-proliferative assay, MCF-7. It counts as cell-based. To be noted: read-out: IC50 (μM) MCF-7. The text has this: (§1) The anti-proliferative activities of 3a–k against human lung cancer cell line (A549), human hepatoma cell line (HepG2), and human breast cancer cell line (MCF-7) were examined. With lupeol and cisplatin as positive controls, the MTT assay was used to evaluate the anti-proliferative activity of all of the synthesized compounds in vitro.
(§2) The MTT (Beyotime, Shanghai, China) colorimetric method was used to test the antitumor activity of the synthetic products. The test compound and the control compound were prepared into the liquid with a concentration of 1, 5, 10, 20, and 40 μmol/L, respectively. The tested tumor cells (A549, HepG2, MCF-7) (Chinese Academy of Sciences, Shanghai, China) were inoculated into 96 well plates with a density of 2 × 10^4 cells/mL, and 90 μL PBS was injected into each well. The 96 well plates were cultured overnight in an incubator, and each well was injected with the same concentration of 10 μL of the test compound. After 48 h, 10 μL of MTT solution was injected into each well. After culture for 4 h, the plates were turned upside down and 100 μL DMSO (Kermel, Tianjin, China) was added. The optical density (OD) values of the compound and the control product were determined at 490 nm wavelength with enzyme-labeled apparatus.
(In general: Tetrazolium assays rely on reduction of a dye to a coloured formazan, in cell work by metabolically active cells.)

For experiment [2], the system named is human lung cancer cell line A549. Description: MTT anti-proliferative assay, A549. It counts as cell-based. To be noted: read-out: IC50 (μM) A549.
Excerpt: as §1, §2

Experiment [3] concerns human liver cancer cell line HepG2. Description: MTT anti-proliferative assay, HepG2. It counts as cell-based. To be noted: read-out: IC50 (μM) HepG2.
Excerpt: as §1, §2

The test system of experiment [4] is A549, HepG2, MCF-7. Description: MTT anti-proliferative assay, stated for all three tumor cell lines together. It counts as cell-based, human. To be noted: for anti-proliferative activity compared with lupeol: three tested cell lines; for IC50: Homo sapiens, 48 h, A549, HepG2 and MCF-7, 48 h, span or bound over the three lines, read-out: IC50 against all three tumor cell lines.
Excerpt: as §1, §2

Setting [5] is: MTT assay, 48 h of treatment, three independent experiments.
[6] abbreviates: Homo sapiens, MCF7, MTT assay, 48 h of treatment, three independent experiments.
The mark [7] stands for this setting: Homo sapiens, A549, MTT assay, 48 h of treatment, three independent experiments.
The mark [8] stands for this setting: Homo sapiens, HepG2, MTT assay, 48 h of treatment, three independent experiments.

Where two headings read alike, the source gives them in different places. Where only a bound is given, the exact number is not on record here.

As usually defined, the IC50 is the concentration at which inhibition is half-maximal. For `N.N.[Cl][Pt][Cl]` [Cisplatin, reference compound], the results for the IC50 in experiment [1] (setting [5]), in experiment [2] (setting [5]) and in experiment [3] (setting [5]) were 5.27 ± 0.68 µM, 4.65 ± 0.52 µM and 4.05 ± 0.45 µM, respectively.

Consider `C=C(C)[C@@H]1CC[C@]2(C)CC[C@]3(C)C(CCC4[C@@]5(C)CC[C@H](OC(=O)N(C)C)C(C)(C)C5CC[C@]43C)C12` (stereo partly drawn) [Compound 3a, Lupeol-3-(dimethyl) Carbamate], for which the IC50 in experiment [1] (Homo sapiens, MCF7, 48 h) came out at 10.2 ± 1.24 µM; in experiment [2] (Homo sapiens, A549, 48 h) it was 14 ± 1.03 µM; in experiment [3] (Homo sapiens, HepG2, 48 h), 11.1 ± 1.45 µM.

On to `C=C(C)[C@@H]1CC[C@]2(C)CC[C@]3(C)C(CCC4[C@@]5(C)CC[C@H](OC(=O)N(CC)CC)C(C)(C)C5CC[C@]43C)C12` (stereo partly drawn) [Compound 3b, Lupeol-3-(diethyl) Carbamate], for which the half-inhibitory concentration (IC50) in experiment [1] (Homo sapiens, MCF7, 48 h) was 12.7 ± 1.43 µM; in experiment [2] (Homo sapiens, A549, 48 h), 14 ± 1.25 µM; in experiment [3] (Homo sapiens, HepG2, 48 h) it was 13.8 ± 1.23 µM.

In the case of `C=C(C)[C@@H]1CC[C@]2(C)CC[C@]3(C)C(CCC4[C@@]5(C)CC[C@H](OC(=O)N(CCC)CCC)C(C)(C)C5CC[C@]43C)C12` (stereo partly drawn) [Compound 3c, Lupeol-3-(dipropyl) Carbamate], the “anti-proliferative activity compared with lupeol” value in experiment [4] is “more potent than that of lupeol”. Besides, the IC50 in experiment [1] (setting [6]) was determined as 15.3 ± 1.11 µM; in experiment [2] (setting [7]) it was 15.5 ± 1.2 µM; in experiment [3] (setting [8]), 5.39 ± 0.77 µM.

As for `C=C(C)[C@@H]1CC[C@]2(C)CC[C@]3(C)C(CCC4[C@@]5(C)CC[C@H](OC(=O)N6CCCC6)C(C)(C)C5CC[C@]43C)C12` (stereo partly drawn) [Compound 3d, Lupeol-3-(pyrrolidine-1-carboxylate)], the IC50 in experiment [1] (setting [6]) was determined as 12.4 ± 1.55 µM; in experiment [2] (setting [7]), 11.3 ± 1.14 µM; in experiment [3] (setting [8]) it was 17.7 ± 1.35 µM.

Regarding `C=C(C)[C@@H]1CC[C@]2(C)CC[C@]3(C)C(CCC4[C@@]5(C)CC[C@H](OC(=O)N6CCCCC6)C(C)(C)C5CC[C@]43C)C12` (stereo partly drawn) [Compound 3e, Lupeol-3-(piperidine-1-carboxylate)], the IC50 was under 20 µM in experiment [4], 14 ± 1.58 µM in experiment [1] (setting [6]), 13.2 ± 1.56 µM in experiment [2] (setting [7]) and 6.91 ± 1.6 µM in experiment [3] (setting [8]). Moreover, the “anti-proliferative activity compared with lupeol” value in experiment [4] is “more potent than that of lupeol”.

On to `C=C(C)[C@@H]1CC[C@]2(C)CC[C@]3(C)C(CCC4[C@@]5(C)CC[C@H](OC(=O)N6CCOCC6)C(C)(C)C5CC[C@]43C)C12` (stereo partly drawn) [Compound 3f, Lupeol-3-(morpholine-1-carboxylate)], for which the IC50 in experiment [1] (setting [6]) is 11.3 ± 1.21 µM; in experiment [2] (setting [7]), 6.76 ± 0.96 µM; in experiment [3] (setting [8]), 10.8 ± 1.52 µM.

Turning to `C=C(C)[C@@H]1CC[C@]2(C)CC[C@]3(C)C(CCC4[C@@]5(C)CC[C@H](OC(=O)N6CCSCC6)C(C)(C)C5CC[C@]43C)C12` (stereo partly drawn) [Compound 3g, Lupeol-3-(thiomorpholine-1-carboxylate)], the IC50 in experiment [1] (setting [6]) is 7.77 ± 1.09 µM; in experiment [2] (setting [7]) it was 8.19 ± 1.02 µM; in experiment [3] (setting [8]), 10.1 ± 1.78 µM.

As to `C=C(C)[C@@H]1CC[C@]2(C)CC[C@]3(C)C(CCC4[C@@]5(C)CC[C@H](OC(=O)N6CCNCC6)C(C)(C)C5CC[C@]43C)C12` (stereo partly drawn) [Compound 3h, Lupeol-3-(piperazine-1-carboxylate)], the IC50 in experiment [4] was under 20 µM; in experiment [1] (setting [6]) it was 9.78 ± 1.2 µM; in experiment [2] (setting [7]), 12 ± 1.47 µM; in experiment [3] (setting [8]) it was 11.2 ± 1.45 µM.

For `C=C(C)[C@@H]1CC[C@]2(C)CC[C@]3(C)C(CCC4[C@@]5(C)CC[C@H](OC(=O)N6CCN(C)CC6)C(C)(C)C5CC[C@]43C)C12` (stereo partly drawn) [Compound 3i, Lupeol-3-((4-methylpiperazine)-1-carboxylate)], the IC50 in experiment [1] (setting [6]) was determined as 8.2 ± 1.46 µM; in experiment [2] (setting [7]), 5.74 ± 0.83 µM; in experiment [3] (setting [8]), 9.43 ± 1.21 µM.

With `C=C(C)C1CCC2(C)CCC3(C)C(CCC4C5(C)CCC(OC(=O)N6CCN(c7ccncc7)CC6)C(C)(C)C5CCC43C)C12` (stereo not drawn) [Compound 3k, Lupeol-3-((4-(pyridin-4-yl)piperazine)-1-carboxylate)], the IC50 was under 20 µM in experiment [4], 19.9 ± 1.82 µM in experiment [1] (setting [6]), 12.1 ± 1.35 µM in experiment [2] (setting [7]) and 14 ± 1.65 µM in experiment [3] (setting [8]). Further, the “anti-proliferative activity compared with lupeol” value in experiment [4] is “more potent than that of lupeol”.

`C=C(C)[C@@H]1CC[C@]2(C)CC[C@]3(C)[C@H](CC[C@@H]4[C@@]5(C)CC[C@H](O)C(C)(C)[C@@H]5CC[C@]43C)[C@@H]12` [Lupeol]: the IC50 in experiment [1] (setting [6]) came out at 62 ± 1.79 µM; in experiment [2] (setting [7]) it was 35.9 ± 1.58 µM; in experiment [3] (setting [8]), 43.6 ± 1.37 µM.
